Data reported in publication PMC6359144 (International Journal of Molecular Sciences, 2019).
Entries after “also recorded” stand apart in the source; their conditions may differ.

Experiments:
[1] = molecular target: T1, purified pig brain tubulin (Sus scrofa, UniProt P02550+P02554); experiment: Turbidimetric cell-free tubulin polymerization assay; assay type: biochemical; details: 10 µM, 340 nm
T1 construct: using purified pig brain tubulin; from tissue; host or cells: pig brain
Description: An amount of 50 µL of Brinkley’s buffer 80 (BRB80) supplemented with 20% glycerol and 3 mM GTP was given in a black 96-well half-area plate with clear bottom. Then, test compounds 4d–f (final concentration: 5 µM, or 10 µM) or vehicle (DMSO) were added. After adding 50 µL tubulin in BRB80 (10 mg/mL) was pipetted in the wells and immediately placed in a pre-heated microplate reader (Tecan). The polymerization was determined turbidimetrically at 37 °C by measuring the absorption at 340 nm for 120 min in intervals of 5 min. Values were normally distributed for each group (Shapiro–Wilk test, p > 0.05) and there was homogeneity of variance (Levene’s test, p > 0.05).

[2] = tested on: HCT-116 colon carcinoma cells; experiment: MTT assay, HCT-116 colon carcinoma cells; assay type: cell-based; details: Homo sapiens, HCT-116, read-out: IC50 HCT-116 (72 h)
Description: HT-29 (ACC-299), HCT-116 (ACC-581) and DLD-1 (ACC-278) colon carcinoma, MCF-7 (ACC-115) breast carcinoma, KB-V1 (ACC-149), 518A2 (Department of Radiotherapy and Radiobiology, University Hospital Vienna) melanoma and Ea.Hy926 (ATCC no. CRL-2922) HUVEC derived endothelial hybrid cells line were grown in Dulbecco’s Modified Eagle Medium (DMEM; Biochrom), high glucose supplemented with 10% (v/v) fetal bovine serum (FBS; Biochrom.) and 1% (v/v) Antibiotic-Antimycotic solution (anti-anti; Thermo Scientific). HDFa human dermal fibroblasts (ATCC: PCS-201-012™) were grown in DMEM supplemented with 10% FBS, 1% anti-anti and 2 mM glutamine. The cells were incubated at 37 °C, 5% CO2, 95% humidified atmosphere. By repeated addition of topotecan or vinblastine at the maximum tolerated dose to the cell medium of MCF-7 and KB-V1 cells, the cells were rendered multidrug-resistant, indicated as MCF-7^Topo and KB-V1^Vbl, respectively. They were serially passaged following trypsinization by using 0.05% trypsin/0.02% EDTA (Biochrom). Mycoplasma contamination was routinely monitored, and only mycoplasma–free cultures were used.
MTT [3-(4,5-dimethylthiazol-2-yl)-2,5-diphenyltetrazolium bromide] (ABCR) was used to determine the cytotoxicity of test compounds as previously described. Briefly, HDFa human dermal fibroblasts and Ea.Hy926 endothelial hybrid cells (both 1 × 10^5 cells/mL, 100 µL/well), 518A2 melanoma, KB-V1^Vbl cervix carcinoma, MCF-7^Topo breast carcinoma, HT-29, DLD-1 and HCT-116 colon carcinoma (all 5 × 10^4 cells/mL, 100 µL/well) were grown in 96-well culture plates for 24 h. Then, various concentrations of the test compounds were added and the cells were incubated for 24-72 h at 37 °C. After adding 12.5 µL of a 0.5% MTT solution in PBS (final concentration 0.05%) to cell medium, microplates were incubated for 2 h and subsequently swiftly turned to discard the medium. The precipitate of formazan crystals was then dissolved in a 10% solution of SDS in DMSO containing 0.6% acetic acid. To ensure complete dissolution of formazan, microplates were incubated for at least 4 h at 37 °C. Finally, the absorbance at λ = 570 nm (formazan) and 630 nm (background) was measured using a microplate reader (Tecan F200). All experiments were carried out in quadruplicate and the percentage of viable cells was calculated as the mean ± SD with controls set to 100%. Selected graphs of MTT assays can be found in the Supporting Information (Figure S8).

recombinant human HDAC6 = molecular target: T2, recombinant human HDAC6 (Homo sapiens, UniProt Q9UBN7); experiment: HDAC6 inhibitor screening assay (fluorometric); assay type: biochemical; details: recombinant human HDAC6, mean ± SD of two experiments; read-out: HDAC inhibition IC50, HDAC6
T2 construct: purchased Biovision
T2 sequence (Q9UBN7 1-1215): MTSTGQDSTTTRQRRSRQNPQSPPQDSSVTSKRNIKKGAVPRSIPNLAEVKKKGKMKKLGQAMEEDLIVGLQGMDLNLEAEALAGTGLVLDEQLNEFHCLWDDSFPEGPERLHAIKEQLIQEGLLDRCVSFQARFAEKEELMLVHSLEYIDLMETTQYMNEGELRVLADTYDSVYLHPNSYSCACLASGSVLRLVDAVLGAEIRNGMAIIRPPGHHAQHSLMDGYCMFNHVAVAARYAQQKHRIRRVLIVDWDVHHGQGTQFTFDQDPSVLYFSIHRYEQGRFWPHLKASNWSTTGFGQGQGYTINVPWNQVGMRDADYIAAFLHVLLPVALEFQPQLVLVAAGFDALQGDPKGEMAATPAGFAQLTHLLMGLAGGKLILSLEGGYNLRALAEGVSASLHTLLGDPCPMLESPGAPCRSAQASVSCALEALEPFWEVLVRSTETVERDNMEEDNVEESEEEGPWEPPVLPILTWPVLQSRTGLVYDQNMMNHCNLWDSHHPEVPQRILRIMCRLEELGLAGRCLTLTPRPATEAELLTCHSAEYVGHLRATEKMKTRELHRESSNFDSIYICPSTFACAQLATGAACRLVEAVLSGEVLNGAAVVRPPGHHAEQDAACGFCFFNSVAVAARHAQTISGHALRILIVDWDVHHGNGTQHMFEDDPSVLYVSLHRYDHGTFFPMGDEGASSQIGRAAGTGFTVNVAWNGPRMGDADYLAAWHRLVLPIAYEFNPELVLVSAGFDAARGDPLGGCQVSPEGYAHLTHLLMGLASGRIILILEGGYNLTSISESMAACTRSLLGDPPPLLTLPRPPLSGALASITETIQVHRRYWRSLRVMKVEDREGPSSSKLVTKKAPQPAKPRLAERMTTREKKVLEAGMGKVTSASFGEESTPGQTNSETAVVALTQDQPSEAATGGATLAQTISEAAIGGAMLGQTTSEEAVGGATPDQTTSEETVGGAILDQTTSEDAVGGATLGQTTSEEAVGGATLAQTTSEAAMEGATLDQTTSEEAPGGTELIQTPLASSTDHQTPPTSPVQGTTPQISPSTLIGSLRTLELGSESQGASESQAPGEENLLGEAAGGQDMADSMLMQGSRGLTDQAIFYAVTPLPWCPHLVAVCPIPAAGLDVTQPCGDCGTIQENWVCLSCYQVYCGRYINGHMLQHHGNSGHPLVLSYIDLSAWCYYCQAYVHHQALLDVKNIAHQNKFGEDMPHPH
Description: The HDAC inhibitory potential of the novel compounds was determined by utilizing the deacetylase activity of recombinant human HDAC1 (HDAC1 Inhibitor Screening Assay Kit; Cayman Chemicals) or HDAC6 (HDAC6 Inhibitor Screening Kit (Fluorometric); Biovision) towards the corresponding synthetic acetylated-peptide substrates resulting in the release of a fluorescent product. The assays were performed according to manufacturer’s description of the in commercially available assay kits. […] The IC50 values were derived from dose-response curves and are expressed as the means ± SD of two independent experiments.

T1 sequence (P02554 whole entry): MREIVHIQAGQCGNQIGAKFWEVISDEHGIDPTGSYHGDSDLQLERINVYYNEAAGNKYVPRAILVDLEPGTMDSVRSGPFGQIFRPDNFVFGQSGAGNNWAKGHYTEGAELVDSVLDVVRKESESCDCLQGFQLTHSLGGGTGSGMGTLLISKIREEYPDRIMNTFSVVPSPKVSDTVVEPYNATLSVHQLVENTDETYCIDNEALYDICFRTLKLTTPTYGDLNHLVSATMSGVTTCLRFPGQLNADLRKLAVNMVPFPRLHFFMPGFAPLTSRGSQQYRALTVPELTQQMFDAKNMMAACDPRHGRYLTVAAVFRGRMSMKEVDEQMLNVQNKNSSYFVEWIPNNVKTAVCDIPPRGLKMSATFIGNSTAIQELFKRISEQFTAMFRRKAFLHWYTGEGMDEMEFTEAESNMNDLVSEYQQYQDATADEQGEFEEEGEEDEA
T1 sequence (P02550 whole entry): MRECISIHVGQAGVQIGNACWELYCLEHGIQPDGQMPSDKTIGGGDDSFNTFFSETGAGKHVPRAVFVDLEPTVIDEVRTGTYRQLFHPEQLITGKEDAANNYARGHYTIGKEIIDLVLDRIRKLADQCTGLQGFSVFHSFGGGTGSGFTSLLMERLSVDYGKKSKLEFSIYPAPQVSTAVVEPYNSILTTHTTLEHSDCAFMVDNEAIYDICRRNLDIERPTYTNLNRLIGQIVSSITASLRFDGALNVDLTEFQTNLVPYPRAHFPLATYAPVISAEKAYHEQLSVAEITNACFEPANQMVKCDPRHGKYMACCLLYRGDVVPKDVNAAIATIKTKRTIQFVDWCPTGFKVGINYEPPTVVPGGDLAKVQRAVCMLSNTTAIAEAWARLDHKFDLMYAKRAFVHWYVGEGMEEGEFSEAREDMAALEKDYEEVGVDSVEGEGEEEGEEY

Row | SMILES | inhibition of tubulin polymerization [1] | IC50 [2] [µM] | IC50 (recombinant human HDAC6) [µM]
1 | COc1ccc(-c2ocnc2-c2cc(Br)c(OC)c(OC)c2)cc1OCCCCC(=O)NO [4e, N-Hydroxy-5-[1-methoxy-4-(4’-(3’’-bromo-4’’,5’’-dimethoxyphenyl)oxazol-5’-yl)-2-phenoxy]pentanamide] | merely moderate inhibitory effect | 2.2 ± 0.3 | 3.5 ± 0.1
2 | COc1ccc(-c2ocnc2-c2cc(Br)c(OC)c(OC)c2)cc1OCCCCCC(=O)NO [4f, N-Hydroxy-6-[1-methoxy-4-(4’-(3’’-bromo-4’’,5’’-dimethoxyphenyl)oxazol-5’-yl)-2-phenoxy]hexanamide] | virtually none | 6.3 ± 0.4 | 0.32 ± 0.02
3 | COc1ccc(-c2ocnc2-c2cc(Br)c(OC)c(OC)c2)cc1OCCCC(=O)NO [4d, N-Hydroxy-4-[1-methoxy-4-(4’-(3’’-bromo-4’’,5’’-dimethoxyphenyl)oxazol-5’-yl)-2-phenoxy]butanamide] | inhibited the polymerization of pig brain tubulin nearly completely; also recorded: significant inhibition of tubulin polymerization | 0.13 ± 0.01 | 13.8 ± 0.2
